The source of these data is patent US10577428B2, “Anti-factor XI monoclonal antibodies and methods of use thereof” (Oregon Health & Science University, priority 2007, dated 2020).

For data set [1], the system named is baboons. The data set is described as follows: Standard template skin bleeding time test (Surgicutt). It is filed as in vivo, baboon. The method, then:
The effects of FXI inhibition and aspirin on primary hemostasis in baboons were assessed using the standard template skin bleeding time test (Surgicutt®, International Technidyne Corp). […] All bleeding time measurements were performed by the same expert technician. For indirect assessment of hemostasis, aPTT and PT measurements were also performed.

Data set [2] relates to baboons (Papio anubis). Description: Vascular graft occlusion studies, collagen coated 2 mm i.d. grafts, high arterial shear. The format is in vivo, baboon (Papio anubis). The procedure:
Thrombus formation was initiated within the baboon AV shunt by interposing a thrombogenic segment of prosthetic vascular graft (ePTFE, WL Gore & Co., Flagstaff, Ariz.), as previously described (Hanson et al. (1993) J. Clin. Invest. 92:2003-2012). To consistently trigger platelet-dependent thrombus formation, the clinical graft segments were coated with immobilized collagen. Twenty mm long grafts having internal diameters (i.d.) of either 2 or 4 mm were filled with equine type I collagen (1 mg/ml; Nycomed Arzenmittel, Munich, Germany) for 15 min, and then dried overnight under sterile airflow. This method produced a uniform collagen coating within the graft lumen as determined by scanning electron microscopy (FIGS. 1B and 1C). The thrombogenic collagen-coated grafts were then incorporated between segments of silicon rubber tubing, and deployed into the AV shunts (FIG. 1A). The grafts were exposed to blood for up to 60 min. During each experiment, the blood flow rate through the graft was restricted to 100 ml/min by clamping the proximal silicone rubber shunt segment, thereby producing a mean wall shear rate (MWSR) in the 4 mm grafts of 265 s^−1, while in the 2 mm grafts the initial MWSR was 2120 s^−1. Flow rates were continuously monitored using an ultrasonic flow meter (Transonics Systems, Ithaca, N.Y.). […] Baseline blood flow was restored through the permanent shunt after each experiment. In the 2 mm diameter grafts blood flow rates progressively declined due to thrombus formation. The grafts were removed from the AV shunts when the flow rate fell from 100 ml/min to below 20 ml/min, signaling imminent occlusion. The time from initiation of blood flow to graft removal (<20 ml/min blood flow) was taken as the occlusion time.
Occlusion studies were performed using 10 mm long 2 mm i.d. collagen coated devices which produced high arterial shear rates (2120 s^−1 at 100 ml/min clamped blood flow). Accumulation of labeled platelets onto 2 mm thrombogenic grafts were measured in 3-min intervals using a gamma scintillation camera. Flow was maintained at 100 ml/min by proximal clamping for as long as possible, and then allowed to decrease as the propagating thrombus began to occlude the device. A final blood flow rate of 20 ml/min was used as a cutoff for occlusion, since a fully occlusive thrombi and lack of blood flow through the device could lead to occlusion of the shunt and a significant loss of blood for the animals.
Since aspirin is a less antihemostatic agent than heparin, and it is often included in the standard treatment of arterial-type platelet-dependent thrombosis, ASA was used in the current studies with the occlusion-prone 2 mm i.d. grafts as a long-acting positive control. ASA (32 mg/kg) was administered orally 2-4 h before each thrombosis experiment, as described previously (Hanson et al. (1985) J. Clin. Invest. 75:1591-1599). Four weeks were allowed for washout of each aXIMab and ASA before performing new experiments in the same animal.

The test system of data set [3] is baboons. The data set is described as follows: Observation for adverse reactions and bleeding events. Conditions: one week follow-up periods of observation. It is filed as in vivo, baboon.
In data set [4] the test system is baboons. Description: Effect of locally infused PPACK during local sampling. The following applies: PPACK 0.5 mg/ml infused locally at 20 μl/min. The format is in vivo, baboon. The procedure: A novel local sampling method was used to assess the local production of thrombogenic mediators by sampling blood that superfused propagating experimental thrombi. […] All blood samples were collected into 1/10th volume 3.8% citrate anticoagulant. Systemic samples (1 ml each) were collected before initiation of thrombosis as well as 30 and 60 min into each study. A total of 6 local blood samples were drawn from the peripheral blood IBL at a rate of 100 μl/min over 10 min intervals out of a 0.64 mm port which was located 10 mm distal to the growing thrombus (FIG. 1A). […] Infusion and sampling were regulated by syringe pumps (Harvard Apparatus). Local sampling was performed only with the 4 mm i.d. devices in this study.

For the compound `CC(=O)Oc1ccccc1C(=O)O` [ASA, acetylsalicylic acid, reference compound], the “effect on bleeding time / hemostasis” value in data set [1] (FIG. 6, compared with no treatment controls) was “prolonged the bleeding time”. Also, in data set [1] (vehicle-treated controls 3.4±0.2 min), the “standard template bleeding time” value was 6.4 ± 0.7 min. In addition, the platelet deposition result in data set [2] (2 mm i.d. grafts) is “reduced platelet deposition”. Further, the Number occluded in data set [2] (2 mm i.d. grafts, 60 min) is listed as 4/6. Besides, in data set [2] (2 mm i.d. grafts, mean ± SEM), the “Embolic events per experiment” value is reported as 1.5 ± 0.6. In data set [2] (2 mm i.d. grafts, mean ± SEM, control 0.30 ± 0.04), the “Fibrin deposition” value is reported as 0.23 ± 0.04 mg. For the same compound, the grafts remained patent in data set [2] (2 mm i.d. grafts, over 60 min) stood at 2. Also, the “time to graft occlusion prolonged by (average)” value in data set [2] (in 4 grafts, ASA 32 mg/kg orally) was 18 min. For the same compound, the adverse bleeding events result in data set [3] is reported as “No re-bleeding phenomena, petechiae, hematomas or other adverse bleeding events”.

With `NC(N)=NCCC[C@H](NC(=O)[C@@H]1CCCN1C(=O)[C@H](N)Cc1ccccc1)C(=O)CCl` [PPACK, Phe-Pro-Arg-chloromethylketone], the “systemic prothrombin times (PT) or activated partial thromboplastin times (aPTT)” value in data set [4] is recorded as “did not affect”.
